Among the data in patent US12559492B2, “BRAF degraders” (C4 Therapeutics, Inc., priority 2020, dated 2026) are DC50 and Emax values, retold here.

In the assay the target is BRAF^V600E protein (Homo sapiens, UniProt P15056, V600E). Description: HiBiT cellular BRAF V600E degradation assay. The format is cell-based. To be noted: 24 h incubation; for DC50: A375.10 cells (HiBiT tag knocked in at N-terminal of BRAF V600E), concentration at which 50% of total cellular BRAF V600E is degraded; for Emax: A375.10 cells, Emax = amount of residual protein remaining in the cell after compound treatment, read-out: HiBit 24 h Emax.
Sequence of BRAF^V600E protein (P15056 whole entry V600E): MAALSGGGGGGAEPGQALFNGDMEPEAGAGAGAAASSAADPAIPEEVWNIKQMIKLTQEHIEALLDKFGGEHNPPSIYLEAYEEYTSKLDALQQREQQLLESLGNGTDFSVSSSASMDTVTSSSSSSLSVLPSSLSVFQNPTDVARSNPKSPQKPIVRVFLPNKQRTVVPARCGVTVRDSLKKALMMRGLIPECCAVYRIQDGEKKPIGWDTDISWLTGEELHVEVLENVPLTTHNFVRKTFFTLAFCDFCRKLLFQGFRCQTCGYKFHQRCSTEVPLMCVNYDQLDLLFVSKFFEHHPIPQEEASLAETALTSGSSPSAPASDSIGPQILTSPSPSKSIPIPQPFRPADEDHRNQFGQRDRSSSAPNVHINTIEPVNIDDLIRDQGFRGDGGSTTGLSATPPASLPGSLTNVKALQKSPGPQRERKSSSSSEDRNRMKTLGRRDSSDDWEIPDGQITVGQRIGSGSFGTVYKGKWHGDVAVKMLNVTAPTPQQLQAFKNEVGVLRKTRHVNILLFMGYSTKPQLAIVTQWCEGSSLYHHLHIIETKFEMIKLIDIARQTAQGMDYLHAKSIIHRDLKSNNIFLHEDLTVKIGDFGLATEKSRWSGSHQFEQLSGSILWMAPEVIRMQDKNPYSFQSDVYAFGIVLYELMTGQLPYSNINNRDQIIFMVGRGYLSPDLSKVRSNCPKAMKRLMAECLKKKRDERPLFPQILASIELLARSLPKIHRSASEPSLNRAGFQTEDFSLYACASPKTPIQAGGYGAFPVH

The DC50 is the concentration at which degradation of the target reaches its halfway point. Higher therefore signals a less potent degrader. As usually defined, the Emax is the greatest response seen or fitted, relative to the assay's reference. Regarding `CCN(C)S(=O)(=O)Nc1ccc(F)c(C(=O)c2c[nH]c3ncc(-c4cnc(N5CCC(NC(=O)CN6CCC(c7ccc(OC8CCC(=O)NC8=O)cc7)CC6)CC5)nc4)cc23)c1F` (centres unmarked) [Example A59, 2-[4-[4-(2,6-Dioxopiperidin-3-yl)oxyphenyl]piperidin-1-yl]-N-[1-[5-[3-[3-[[ethyl(methyl)sulfamoyl]amino]-2,6-difluorobenzoyl]-1H-pyrrolo[2,3-b]pyridin-5-yl]pyrimidin-2-yl]piperidin-4-yl]acetamide;formic acid], the 50% degradation concentration (DC50) turned out to be 60 nM and the maximum response (Emax) turned out to be 13%.

As to `CCN(C)S(=O)(=O)Nc1ccc(F)c(C(=O)c2c[nH]c3ncc(-c4cnc(N5CCC(NC(=O)CN6CCC(c7ccc(OC8CCC(=O)NC8=O)cn7)CC6)CC5)nc4)cc23)c1F` (centres unmarked) [Example A60, 2-[4-[5-(2,6-Dioxopiperidin-3-yl)oxypyridin-2-yl]piperidin-1-yl]-N-[1-[5-[3-[3-[[ethyl(methyl)sulfamoyl]amino]-2,6-difluorobenzoyl]-1H-pyrrolo[2,3-b]pyridin-5-yl]pyrimidin-2-yl]piperidin-4-yl]acetamide;formic acid], it took 275 nM to reach half-maximal degradation (DC50) and the Emax is 24%.

As for `CCN(C)S(=O)(=O)Nc1ccc(F)c(C(=O)c2c[nH]c3ncc(-c4ccc(N5CCC(NC(=O)CN6CCC(c7ccc(OC8CCC(=O)NC8=O)cc7)CC6)CC5)nc4)cc23)c1F` (centres unmarked) [Example A61, 2-[4-[4-(2,6-Dioxopiperidin-3-yl)oxyphenyl]piperidin-1-yl]-N-[1-[5-[3-[3-[[ethyl(methyl)sulfamoyl]amino]-2,6-difluorobenzoyl]-1H-pyrrolo[2,3-b]pyridin-5-yl]pyridin-2-yl]piperidin-4-yl]acetamide;formic acid], it took 40 nM to reach half-maximal degradation (DC50) and the Emax worked out at 16%.

As to `CCN(C)S(=O)(=O)Nc1ccc(F)c(C(=O)c2c[nH]c3ncc(-c4cnc(N5CCC(NC(=O)CN6CCC(c7ccc(NC8CCC(=O)NC8=O)cc7)CC6)CC5)nc4)cc23)c1F` (centres unmarked) [Example A62, 2-[4-[4-[(2,6-Dioxopiperidin-3-yl)amino]phenyl]piperidin-1-yl]-N-[1-[5-[3-[3-[[ethyl(methyl)sulfamoyl]amino]-2,6-difluorobenzoyl]-1H-pyrrolo[2,3-b]pyridin-5-yl]pyrimidin-2-yl]piperidin-4-yl]acetamide;formic acid], the DC50 was 8 nM and the Emax was found to be 18%.

`CCN(C)S(=O)(=O)Nc1ccc(F)c(C(=O)c2c[nH]c3ncc(-c4ccc(N5CCC(NC(=O)CN6CCC(c7ccc(OC8CCC(=O)NC8=O)cn7)CC6)CC5)cc4)cc23)c1F` (centres unmarked) [Example A64, 2-[4-[5-(2,6-Dioxopiperidin-3-yl)oxypyridin-2-yl]piperidin-1-yl]-N-[1-[4-[3-[3-[[ethyl(methyl)sulfamoyl]amino]-2,6-difluorobenzoyl]-1H-pyrrolo[2,3-b]pyridin-5-yl]phenyl]piperidin-4-yl]acetamide;formic acid]: the DC50 turned out to be 67 nM and the Emax was determined as 13%.

Consider `CCN(C)S(=O)(=O)Nc1ccc(F)c(C(=O)c2c[nH]c3ncc(-c4ccc(N5CCC(NC(=O)CN6CCC(c7ccc(OC8CCC(=O)NC8=O)cn7)CC6)CC5)nc4)cc23)c1F` (centres unmarked) [Example A65, 2-[4-[5-(2,6-Dioxopiperidin-3-yl)oxypyridin-2-yl]piperidin-1-yl]-N-[1-[5-[3-[3-[[ethyl(methyl)sulfamoyl]amino]-2,6-difluorobenzoyl]-1H-pyrrolo[2,3-b]pyridin-5-yl]pyridin-2-yl]piperidin-4-yl]acetamide;formic acid], for which the DC50 amounted to 151 nM and the Emax is 18%.

Turning to `CCN(C)S(=O)(=O)Nc1ccc(F)c(C(=O)c2c[nH]c3ncc(-c4ccc(N5CCC(NC(=O)CN6CCC(c7ccc(NC8CCC(=O)NC8=O)cc7)CC6)CC5)nc4)cc23)c1F` (centres unmarked) [Example A66, 2-[4-[4-[(2,6-Dioxopiperidin-3-yl)amino]phenyl]piperidin-1-yl]-N-[1-[5-[3-[3-[[ethyl(methyl)sulfamoyl]amino]-2,6-difluorobenzoyl]-1H-pyrrolo[2,3-b]pyridin-5-yl]pyridin-2-yl]piperidin-4-yl]acetamide; formic acid], the DC50 is 17 nM and the Emax was determined as 13%.
